Drawing on US6268391A, “Benzylidene-1,3-dihydro-indol-2-one derivatives a receptor tyrosine kinase inhibitors, particularly of Raf kinases” (Glaxo Wellcome Inc., priority 1997, dated 2001), this text covers IC50 for 38 molecules.

The assay deals with T1, Human cRaf1 (Homo sapiens, UniProt P04049).
T1 construct: poly-histidine (C); made in house
Nature of the assay: Raf kinase assay (cRaf1 assay / Raf/MEK cascade assay). The note with it: Table 3; read-out: Raf Kinase activity. The class given is biochemical. How it is done: The potency of cRaf1 dependent kinase activity was measured using one of two assay formats. The first measured cRaf1 catalyzed phosphorylation of MEK1, the natural substrate for cRaf1. This assay is referred to as the cRaf1 assay. The second measured the ability of cRaf1 to phosphorylate and activate MEK1. This assay is referred to as the Raf/MEK cascade assay.
Human cRaf1 tagged with poly histidine at the carboxyterminus was expressed in a baculovirus expression system and purfied by Ni chelate affinity chromatography. Human MEK1 was expressed in E. coli as a fusion protein with Glutathione-S-transferase, and purified by glutathione sepharose affinity chromatography. […] Reactions contained cRaf1 (20 nM), MEK1 (100-500 nM), [γ-^32 P]ATP ([…]), Mg^2+ (10 mM), MOPS (50 mM, pH 7.5). Reactions were incubated at room temperature for periods of time ranging from 20-120 minutes. Inhibitors were diluted in 100% DMSO prior to addition to the assay. Reactions were terminated with an equal volume of 0.5% phosphoric acid. MEK1 phosphorylation was detected by scintillation counting following collection of protein onto phosphocellulose filters.
Human cRaf1 and MEK1 were purified as described above. A peptide substrate phosphorylated by MEK1 was used as the final phosphoryl group acceptor. […] Assay conditions were the same as those described above except for the following modifications. Reactions contained cRaf1 (1-5 nM), MEK1 (60 nM), and peptide ([…]).

The structures appear in SMILES notation. pIC50: −log10 of the molar value. Some results are limits rather than exact numbers.

T1 sequence (P04049 whole entry): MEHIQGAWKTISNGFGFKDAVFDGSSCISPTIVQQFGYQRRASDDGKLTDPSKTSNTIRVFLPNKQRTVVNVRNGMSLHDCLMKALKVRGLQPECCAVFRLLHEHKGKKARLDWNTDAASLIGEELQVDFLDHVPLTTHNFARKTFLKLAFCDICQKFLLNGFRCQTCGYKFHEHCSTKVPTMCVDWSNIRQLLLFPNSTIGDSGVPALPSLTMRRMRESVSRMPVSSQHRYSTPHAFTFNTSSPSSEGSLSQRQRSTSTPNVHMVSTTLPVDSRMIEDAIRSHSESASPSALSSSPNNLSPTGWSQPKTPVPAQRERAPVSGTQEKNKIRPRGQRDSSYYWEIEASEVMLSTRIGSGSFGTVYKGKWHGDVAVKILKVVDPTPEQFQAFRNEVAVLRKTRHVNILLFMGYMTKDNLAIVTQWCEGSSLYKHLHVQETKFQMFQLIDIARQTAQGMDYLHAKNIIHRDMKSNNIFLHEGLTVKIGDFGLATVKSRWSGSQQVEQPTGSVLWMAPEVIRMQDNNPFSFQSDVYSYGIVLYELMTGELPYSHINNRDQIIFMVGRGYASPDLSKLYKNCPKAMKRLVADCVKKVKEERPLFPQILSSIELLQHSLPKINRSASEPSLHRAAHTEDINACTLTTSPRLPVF

For the molecule `O=C1Nc2ccc(Br)cc2C1=Cc1cc(Cl)c(O)c(Cl)c1` [Example 41, 5-Bromo-3-(3,5-dichloro-4-hydroxy-benzylidene)-1,3-dihydro-indol-2-one], the pIC50 was over 6.00.
On to `CCOc1cc(C=C2C(=O)Nc3ccc(I)cc32)cc(Br)c1O` [Example 42, 3-(3-Bromo-5-ethoxy-4-hydroxy-benzylidene)-5-iodo-1,3-dihydro-indol-2-one], for which the pIC50 was over 6.00.
As for `COc1cc(C=C2C(=O)Nc3ccc(I)cc32)cc(Br)c1O` [Example 43, 3-(3-Bromo-4-hydroxy-5-methoxy-benzylidene)-5-iodo-1,3-dihydro-indol-2-one], the pIC50 is over 6.00.
On to `O=C1Nc2ccc(Br)cc2C1=Cc1cc(I)c(O)c(I)c1` [Example 44, 5-Bromo-3-(3,5-diiodo-4-hydroxy-benzylidene)-1,3-dihydro-indol-2-one], for which the pIC50 was over 6.00.
For `O=C1Nc2ccc(OC(F)(F)F)cc2C1=Cc1cc(I)c(O)c(I)c1` [Example 45, 3-(3,5-diiodo-4-Hydroxy-benzylidene)-5-trifluoromethoxy-1,3-dihydro-indol-2-one], the pIC50 was over 6.00.
On to `COc1cc(C=C2C(=O)Nc3ccccc32)cc(Br)c1O` [Example 46, 3-(3-Bromo-4-hydroxy-5-methoxy-benzylidene)-1,3-dihydro-indol-2-one], for which the pIC50 was over 6.00.
With `O=C1Nc2ccccc2C1=Cc1cc([N+](=O)[O-])c(O)c([N+](=O)[O-])c1` [Example 47, 3-(3,5-dinitro-4-Hydroxy-benzylidene)-1,3-dihydro-indol-2-one], the pIC50 was 5.00 to 6.00.
With `O=C1Nc2ccccc2C1=Cc1cc(Cl)c(O)c(Cl)c1` [Example 48, 3-(3,5-dichloro-4-Hydroxy-benzylidene)-1,3-dihydro-indol-2-one], the pIC50 was 5.00 to 6.00.
With `COc1cc(C=C2C(=O)Nc3ccccc32)cc(Cl)c1O` [Example 49, 3-(3-Chloro-4-hydroxy-5-methoxy-benzylidene)-1,3-dihydro-indol-2-one] the figure was 5.00 to 6.00; with `O=C1Nc2ccccc2C1=Cc1cc(I)c(O)c(I)c1` [Example 50, 3-(3,5-diiodo-4-Hydroxy-benzylidene)-1,3-dihydro-indol-2-one], 5.00 to 6.00.
`COc1cc(C=C2C(=O)Nc3ccc(Cl)cc32)cc(Br)c1O` [Example 51, 3-(3-Bromo-4-hydroxy-5-methoxy-benzylidene)-5-chloro-1,3-dihydro-indol-2-one]: the pIC50 was over 6.00.
With `O=C1Nc2ccc(Cl)cc2C1=Cc1cc([N+](=O)[O-])c(O)c([N+](=O)[O-])c1` [Example 52, 5-Chloro-3-(3,5-dinitro-4-hydroxy-benzylidene)-1,3-dihydro-indol-2-one], the pIC50 is over 6.00.
Next, `COc1cc(C=C2C(=O)Nc3ccc(Cl)cc32)cc([N+](=O)[O-])c1O` [Example 53, 5-Chloro-3-(4-hydroxy-3-methoxy-5-nitro-benzylidene)-1,3-dihydro-indol-2-one]: over 6.00; `COc1cc(C=C2C(=O)Nc3ccc(Cl)cc32)cc(Cl)c1O` [Example 54, 5-Chloro-3-(3-chloro-4-hydroxy-5-methoxy-benzylidene)-1,3-dihydro-indol-2-one]: over 6.00; `O=C1Nc2ccc(Cl)cc2C1=Cc1cc(I)c(O)c(I)c1` [Example 55, 5-Chloro-3-(3,5-diiodo-4-hydroxy-benzylidene)-1,3-dihydro-indol-2-one]: over 6.00.
In the case of `CCOc1cc(C=C2C(=O)Nc3ccc(Br)cc32)cc(Br)c1O` [Example 56, 5-Bromo-3-(3-bromo-5-ethoxy-4-hydroxy-benzylidene)-1,3-dihydro-indol-2-one], the pIC50 is over 6.00.
With `COc1cc(C=C2C(=O)Nc3ccc(Br)cc32)cc(Br)c1O` [Example 57, 5-Bromo-3-(3-bromo-4-hydroxy-5-methoxy-benzylidene)-1,3-dihydro-indol-2-one] the figure was over 6.00; with `COc1cc(C=C2C(=O)Nc3cc(F)c(F)cc32)cc(Br)c1O` [Example 58, 3-(3-Bromo-4-hydroxy-5-methoxy-benzylidene)-5,6-difluoro-1,3-dihydro-indol-2-one], over 6.00; with `CCOc1cc(C=C2C(=O)Nc3ccc(OC(F)(F)F)cc32)cc(Br)c1O` [Example 59, 3-(3-Bromo-5-ethoxy-4-hydroxy-benzylidene)-5-trifluoromethoxy-1,3-dihydro-indol-2-one], over 6.00.
`O=C1Nc2ccc(OC(F)(F)F)cc2C1=Cc1cc(Cl)c(O)c(Cl)c1` [Example 60, 3-(3,5-Dichloro-4-hydroxy-benzylidene)-5-trifluoromethoxy-1,3-dihydro-indol-2-one]: the pIC50 was over 6.00.
Next, `COc1cc(C=C2C(=O)Nc3ccc(OC(F)(F)F)cc32)cc(Br)c1O` [Example 61, 3-(3-Bromo-4-hydroxy-5-methoxy-benzylidene)-5-trifluoromethoxy-1,3-dihydro-indol-2-one]: over 6.00.
On to `O=C1Nc2c(cc([N+](=O)[O-])cc2[N+](=O)[O-])C1=Cc1cc(Br)c(O)c(Br)c1` [Example 62, 3-(3,5-Dibromo-4-hydroxy-benzylidene)-5,7-dinitro-1,3-dihydro-indol-2-one], for which the pIC50 is over 6.00.
As to `O=C1Nc2ccc([N+](=O)[O-])cc2C1=Cc1cc(Br)c(O)c(Br)c1` [Example 63, 3-(3,5-Dibromo-4-hydroxy-benzylidene)-5-nitro-1,3-dihydro-indol-2-one], the pIC50 was over 6.00.
With `O=C1Nc2c(I)cccc2C1=Cc1cc(Br)c(O)c(Br)c1` [Example 64, 3-(3,5-Dibromo-4-hydroxy-benzylidene)-7-iodo-1,3-dihydro-indol-2-one] the figure was over 6.00.
As for `O=C1Nc2ccc([N+](=O)[O-])cc2C1=Cc1cc(Cl)c(O)c(Cl)c1` [Example 65, 3-(3,5-Dichloro-4-hydroxy-benzylidene)-5-nitro-1,3-dihydro-indol-2-one], the pIC50 is over 6.00.
For `O=C1Nc2c(Br)cccc2C1=Cc1cc(Cl)c(O)c(Cl)c1` [Example 67, 7-Bromo-3-(3,5-dichloro-4-hydroxy-benzylidene)-1,3-dihydro-indol-2-one], the pIC50 was over 6.00.
In the case of `CCOc1cc(C=C2C(=O)Nc3ccc([N+](=O)[O-])cc32)cc(Br)c1O` [Example 68, 3-(3-Bromo-5-ethoxy-4-hydroxy-benzylidene)-5-nitro-1,3-dihydro-indol-2-one], the pIC50 was over 6.00.
Regarding `CN(CC(N)=O)CC(=O)c1ccc2c(c1)C(=Cc1cc(Br)c(O)c(Br)c1)C(=O)N2` [Example 69, 2-(N-{3-[3-(3,5 Dibromo-4-hydroxy-benzylidene)-2-oxo-2,3-dihydro-1H-indol-5-yl]-2-oxo-ethyl}-N-methyl-amino)-acetamide], the pIC50 was over 6.00.
Next, `O=C1Nc2ccc(C(=O)CN(CCO)CCCO)cc2C1=Cc1cc(Br)c(O)c(Br)c1` [Example 70, 3-(3,5-Dibromo-4-hydroxy-benzylidene)-5-{2-[(N-2-hydroxy-ethyl)-N-(3-hydroxy-propyl)-amino]-acetyl}-1,3-dihydro-indol-2-one]: over 6.00.
Take `O=C1Nc2ccc(C(=O)CN3CCSCC3)cc2C1=Cc1cc(Br)c(O)c(Br)c1` [Example 72]: the pIC50 is over 6.00.
In the case of `O=C1Nc2ccc(C(=O)CN3CCOCC3)cc2C1=Cc1cc(Br)c(O)c(Br)c1` [Example 73], the pIC50 was over 6.00.
For `O=C1Nc2ccc(C(=O)CN(CCO)CCO)cc2C1=Cc1cc(Br)c(O)c(Br)c1` [Example 74, 5-{2-[Bis-(2-hydroxy-ethyl)-amino]-acetyl}-3-(3,5-dibromo-4-hydroxy-benzylidene)-1,3-dihydro-indol-2-one], the pIC50 is over 6.00.
Turning to `CN(CCO)CC(=O)c1ccc2c(c1)C(=Cc1cc(Br)c(O)c(Br)c1)C(=O)N2` [Example 75], the pIC50 was over 6.00.
For the molecule `O=C1Nc2ccc(C(=O)CN3CCSC3)cc2C1=Cc1cc(Br)c(O)c(Br)c1` [Example 76, 3-(3,5-Dibromo-4-hydroxy-benzylidene)-5-(2-(thiazolidin-3-yl)-acetyl)-1,3-dihydro-indol-2-one], the pIC50 is over 6.00.
On to `O=C1Nc2ccc(C(=O)C[n+]3ccccc3)cc2C1=Cc1cc(Br)c(O)c(Br)c1` [Example 77, 3-(3,5-Dibromo-4-hydroxy-benzylidene)-5-(2-(N-pyridinium)-acetyl)-1,3-dihydro-indol-2-one chloride], for which the pIC50 is over 6.00.
Next, `CC(C)(C)C(=O)OCOc1c(Br)cc(C=C2C(=O)Nc3ccc(I)cc32)cc1Br` [Example 80, 2,2-Dimethyl-propionic acid,2,6-dibromo-4-(5-iodo-2-oxo-1,3-dihydro-indol-3-ylidenemethyl)-phenoxymethyl ester]: 4.00 to 5.00; `O=C1Nc2ccc(Br)cc2C1=Cc1cc(Br)c(O)c(Br)c1` [Example 81, 5-Bromo-3-(3,5-dibromo-4-hydroxy-benzylidene)-1,3-dihydro-indol-2-one]: over 6.00.
With `COc1cc(C=C2C(=O)Nc3ccc(Br)cc32)cc(Cl)c1O` [Example 82, 5-Bromo-3-(3-chloro-4-hydroxy-5-methoxy-benzylidene)-1,3-dihydro-indol-2-one], the pIC50 was over 6.00.
